In the NIST ThermoML archive (doi:10.1016/j.fluid.2015.03.015):
Several values for one entry are separate records, joined by “and”; a condition that tells them apart may be missing. Identical values can stand only once.

Assay: refractive index (other wavelength) (dimensionless); xn = mol fraction of the nth substance listed

CCCCCCCC[n+]1ccn(C)c1.F[B-](F)(F)F [1-methyl-3-octylimidazolium tetrafluoroborate] + CCCCCCCO
Minimum deviation
Details | refractive index
298.87 K, Liquid mixture 1, Wavelength=623.8 nm, x1 = 0.01 | 1.4213
298.87 K, Liquid mixture 2, Wavelength=623.8 nm, x1 = 0.382 | 1.4264
299.67 K, Liquid mixture 1, Wavelength=623.8 nm, x1 = 0.011 | 1.421
299.67 K, Liquid mixture 2, Wavelength=623.8 nm, x1 = 0.371 | 1.426
300.45 K, Liquid mixture 1, Wavelength=623.8 nm, x1 = 0.011 | 1.4207
300.45 K, Liquid mixture 2, Wavelength=623.8 nm, x1 = 0.359 | 1.4256
301.2 K, Liquid mixture 1, Wavelength=623.8 nm, x1 = 0.016 | 1.4205
301.2 K, Liquid mixture 2, Wavelength=623.8 nm, x1 = 0.347 | 1.4252
301.93 K, Liquid mixture 1, Wavelength=623.8 nm, x1 = 0.015 | 1.4202
301.93 K, Liquid mixture 2, Wavelength=623.8 nm, x1 = 0.335 | 1.4248
302.63 K, Liquid mixture 1, Wavelength=623.8 nm, x1 = 0.019 | 1.42
302.63 K, Liquid mixture 2, Wavelength=623.8 nm, x1 = 0.33 | 1.4245
303.31 K, Liquid mixture 1, Wavelength=623.8 nm, x1 = 0.023 | 1.4198
303.31 K, Liquid mixture 2, Wavelength=623.8 nm, x1 = 0.317 | 1.4241
303.94 K, Liquid mixture 1, Wavelength=623.8 nm, x1 = 0.025 | 1.4196
303.94 K, Liquid mixture 2, Wavelength=623.8 nm, x1 = 0.302 | 1.4237
304.5 K, Liquid mixture 1, Wavelength=623.8 nm, x1 = 0.027 | 1.4194
304.5 K, Liquid mixture 2, Wavelength=623.8 nm, x1 = 0.294 | 1.4234
305 K, Liquid mixture 1, Wavelength=623.8 nm, x1 = 0.031 | 1.4193
305 K, Liquid mixture 2, Wavelength=623.8 nm, x1 = 0.284 | 1.4231
305.41 K, Liquid mixture 1, Wavelength=623.8 nm, x1 = 0.035 | 1.4192
305.41 K, Liquid mixture 2, Wavelength=623.8 nm, x1 = 0.272 | 1.4228
305.78 K, Liquid mixture 1, Wavelength=623.8 nm, x1 = 0.037 | 1.4191
305.78 K, Liquid mixture 2, Wavelength=623.8 nm, x1 = 0.259 | 1.4225
306.09 K, Liquid mixture 1, Wavelength=623.8 nm, x1 = 0.038 | 1.419
306.09 K, Liquid mixture 2, Wavelength=623.8 nm, x1 = 0.253 | 1.4223
306.34 K, Liquid mixture 1, Wavelength=623.8 nm, x1 = 0.043 | 1.419
306.34 K, Liquid mixture 2, Wavelength=623.8 nm, x1 = 0.244 | 1.4221
306.54 K, Liquid mixture 1, Wavelength=623.8 nm, x1 = 0.048 | 1.419
306.54 K, Liquid mixture 2, Wavelength=623.8 nm, x1 = 0.242 | 1.422
306.7 K, Liquid mixture 1, Wavelength=623.8 nm, x1 = 0.051 | 1.419
306.7 K, Liquid mixture 2, Wavelength=623.8 nm, x1 = 0.232 | 1.4218
306.83 K, Liquid mixture 1, Wavelength=623.8 nm, x1 = 0.06 | 1.4191
306.83 K, Liquid mixture 2, Wavelength=623.8 nm, x1 = 0.228 | 1.4217
306.93 K, Liquid mixture 1, Wavelength=623.8 nm, x1 = 0.062 | 1.4191
306.93 K, Liquid mixture 2, Wavelength=623.8 nm, x1 = 0.224 | 1.4216
307.02 K, Liquid mixture 1, Wavelength=623.8 nm, x1 = 0.064 | 1.4191
307.02 K, Liquid mixture 2, Wavelength=623.8 nm, x1 = 0.219 | 1.4215
307.1 K, Liquid mixture 1, Wavelength=623.8 nm, x1 = 0.071 | 1.4192
307.1 K, Liquid mixture 2, Wavelength=623.8 nm, x1 = 0.221 | 1.4215
307.16 K, Liquid mixture 1, Wavelength=623.8 nm, x1 = 0.073 | 1.4192
307.16 K, Liquid mixture 2, Wavelength=623.8 nm, x1 = 0.215 | 1.4214
307.21 K, Liquid mixture 1, Wavelength=623.8 nm, x1 = 0.08 | 1.4193
307.21 K, Liquid mixture 2, Wavelength=623.8 nm, x1 = 0.217 | 1.4214
307.26 K, Liquid mixture 1, Wavelength=623.8 nm, x1 = 0.081 | 1.4193
307.26 K, Liquid mixture 2, Wavelength=623.8 nm, x1 = 0.211 | 1.4213
307.3 K, Liquid mixture 1, Wavelength=623.8 nm, x1 = 0.081 | 1.4193
307.3 K, Liquid mixture 2, Wavelength=623.8 nm, x1 = 0.204 | 1.4212
307.33 K, Liquid mixture 1, Wavelength=623.8 nm, x1 = 0.082 | 1.4193
307.33 K, Liquid mixture 2, Wavelength=623.8 nm, x1 = 0.198 | 1.4211
307.36 K, Liquid mixture 1, Wavelength=623.8 nm, x1 = 0.089 | 1.4194
307.36 K, Liquid mixture 2, Wavelength=623.8 nm, x1 = 0.199 | 1.4211
307.39 K, Liquid mixture 1, Wavelength=623.8 nm, x1 = 0.089 | 1.4194
307.39 K, Liquid mixture 2, Wavelength=623.8 nm, x1 = 0.193 | 1.421
307.41 K, Liquid mixture 1, Wavelength=623.8 nm, x1 = 0.09 | 1.4194
307.41 K, Liquid mixture 2, Wavelength=623.8 nm, x1 = 0.186 | 1.4209
307.44 K, Liquid mixture 1, Wavelength=623.8 nm, x1 = 0.096 | 1.4195
307.44 K, Liquid mixture 2, Wavelength=623.8 nm, x1 = 0.187 | 1.4209
307.45 K, Liquid mixture 1, Wavelength=623.8 nm, x1 = 0.097 | 1.4195
307.45 K, Liquid mixture 2, Wavelength=623.8 nm, x1 = 0.18 | 1.4208
307.47 K, Liquid mixture 1, Wavelength=623.8 nm, x1 = 0.097 | 1.4195
307.47 K, Liquid mixture 2, Wavelength=623.8 nm, x1 = 0.181 | 1.4208
307.48 K, Liquid mixture 1, Wavelength=623.8 nm, x1 = 0.097 | 1.4195
307.48 K, Liquid mixture 2, Wavelength=623.8 nm, x1 = 0.174 | 1.4207
307.49 K, Liquid mixture 1, Wavelength=623.8 nm, x1 = 0.104 | 1.4196
307.49 K, Liquid mixture 2, Wavelength=623.8 nm, x1 = 0.175 | 1.4207
307.5 K, Liquid mixture 1, Wavelength=623.8 nm, x1 = 0.104 | 1.4196
307.5 K, Liquid mixture 2, Wavelength=623.8 nm, x1 = 0.168 | 1.4206
307.51 K, Liquid mixture 1, Wavelength=623.8 nm, x1 = 0.104 | 1.4196
307.51 K, Liquid mixture 2, Wavelength=623.8 nm, x1 = 0.168 | 1.4206
307.52 K, Liquid mixture 1, Wavelength=623.8 nm, x1 = 0.104 | 1.4196
307.52 K, Liquid mixture 1, Wavelength=623.8 nm, x1 = 0.111 | 1.4197
307.52 K, Liquid mixture 2, Wavelength=623.8 nm, x1 = 0.155 | 1.4204
307.52 K, Liquid mixture 2, Wavelength=623.8 nm, x1 = 0.162 | 1.4205 and 1.4205
307.53 K, Liquid mixture 1, Wavelength=623.8 nm, x1 = 0.111 | 1.4197
307.53 K, Liquid mixture 1, Wavelength=623.8 nm, x1 = 0.117 | 1.4198 and 1.4198
307.53 K, Liquid mixture 2, Wavelength=623.8 nm, x1 = 0.149 | 1.4203
307.53 K, Liquid mixture 2, Wavelength=623.8 nm, x1 = 0.155 | 1.4204

85 kPa, Liquid, Wavelength=632.8 nm, Minimum Deviation
Details | refractive index
301.61 K, x1 = 0.7 | 1.4285
302.37 K, x1 = 0.8 | 1.429
302.37 K, x1 = 0.898 | 1.4299
303.54 K, x1 = 0.7 | 1.4279
303.94 K, x1 = 0.898 | 1.4295
303.98 K, x1 = 0.8 | 1.4286
305.36 K, x1 = 0.7 | 1.4274
305.43 K, x1 = 0.898 | 1.4291
305.58 K, x1 = 0.5 | 1.4254
305.64 K, x1 = 0.8 | 1.4282
306.75 K, x1 = 0.6 | 1.4262
307.04 K, x1 = 0.7 | 1.4269
307.1 K, x1 = 0.8 | 1.4278
307.12 K, x1 = 0.898 | 1.4286
307.21 K, x1 = 0.5 | 1.4249
307.74 K, x1 = 0.2 | 1.421
307.74 K, x1 = 0.3 | 1.4225
308 K, x1 = 0.399 | 1.4235
308.01 K, x1 = 0.1 | 1.4195
308.5 K, x1 = 0.7 | 1.4265
308.52 K, x1 = 0.6 | 1.4256
308.6 K, x1 = 0.5 | 1.4245
308.63 K, x1 = 0.8 | 1.4274
309.13 K, x1 = 0.3 | 1.422
309.27 K, x1 = 0.898 | 1.428
309.33 K, x1 = 0.2 | 1.4204
309.52 K, x1 = 0.1 | 1.4189
309.56 K, x1 = 0.399 | 1.423
310.16 K, x1 = 0.5 | 1.424
310.34 K, x1 = 0.7 | 1.426
310.34 K, x1 = 0.8 | 1.4269
310.75 K, x1 = 0.3 | 1.4214
310.81 K, x1 = 0.6 | 1.4249
310.88 K, x1 = 0.2 | 1.4199
311.04 K, x1 = 0.1 | 1.4183
311.13 K, x1 = 0.399 | 1.4225
311.28 K, x1 = 0.898 | 1.4274
311.69 K, x1 = 0.5 | 1.4235
312.29 K, x1 = 0.3 | 1.4209
312.54 K, x1 = 0.2 | 1.4193
312.58 K, x1 = 0.1 | 1.4178
312.73 K, x1 = 0.6 | 1.4243
313.03 K, x1 = 0.399 | 1.4219
313.17 K, x1 = 0.5 | 1.4231
313.86 K, x1 = 0.3 | 1.4204
314.02 K, x1 = 0.2 | 1.4188
314.06 K, x1 = 0.1 | 1.4172
314.31 K, x1 = 0.399 | 1.4214
314.64 K, x1 = 0.6 | 1.4237
315.45 K, x1 = 0.3 | 1.4198
315.63 K, x1 = 0.1 | 1.4166
315.63 K, x1 = 0.2 | 1.4183
316.32 K, x1 = 0.399 | 1.4208
316.32 K, x1 = 0.6 | 1.4232
